Source: patent publication EP0431327B1, “Synthetic vaccine for the specific induction of cytotoxic T-lymphocytes” (HOECHST AKTIENGESELLSCHAFT, priority 1989, dated 1991)

Tested on: Influenza-Virus A/PR/8
Assay: Protection of immunised mice against intranasal influenza virus infection (survival, body weight)
Assay type: in vivo, BALB/c-Inzuchtmäuse
Method: Unter SPF-Bedingungen gezüchtete, 3 Monate alte BALB/c-Inzuchtmäuse wurden intravenös mit 100 µg Pam₃cys-Ser-Ser-[NP 147-158] immunisiert. (100 µg Pam₃Cys-Ser-Ser-[NP 147-158], aufgenommen in 300 µl PBS, 1 min beschallt). Nach 28 Tagen wurden die Mäuse mit 0,2 bzw. 0,4 haemagglutinierenden Einheiten Influenza-Virus A/PR/8 intranasal infiziert. Analog wurden zur Kontrolle Mäuse infiziert, denen 300 µl PBS intravenös appliziert wurde. Der Verlauf der Infektion wurde anhand von täglichen Gewichtskontrollen und der Überlebensrate kontrolliert. 11 von 12 Kontrolltieren, die mit 0,4 haemagglutinierenden Einheiten infiziert wurden, starben nach 11 Tagen an der Virusinfektion, während von den immunisierten Tieren nur 4 von 12 starben.
Eine weitere Kontrollgruppe und eine mit Pam₃Cys-Ser-Ser-[NP 147-158] immunisierte Gruppe wurden mit 0,2 haemagglutinierenden Einheiten Influenza-Virus infiziert. Nach 18 Tagen lebten noch 40 % der Kontrolltiere (4 von 10 Tieren), während 75 % der immunisierten Tiere lebten. Am Tag 18 betrug die Gewichtsdifferenz zwischen immunisierten Tieren und Kontrolltieren 4 g.

## N-Palmitoyl-S-[2,3-(bispalmitoyloxy)-propyl]cysteinyl-seryl-seryl-NP 147-158 [Pam₃Cys-Ser-Ser-[NP 147-158]]
0,2 haemagglutinating units, after day 18, surviving controls kept losing weight
  Verlauf der Infektion (Gewicht): langsam von der Infektion erholten
0,2 haemagglutinating units, day 18
  Gewichtsdifferenz zwischen immunisierten Tieren und Kontrolltieren: 4 g
100 µg i.v. in 300 µl PBS, after 28 days infected intranasally with 0,4 haemagglutinating units, deaths after 11 days, PBS controls 11 von 12
  immunisierte Tiere, die an der Virusinfektion starben: 4 von 12
Immunised group infected with 0,2 haemagglutinating units, after 18 days, controls 40 %
  lebende immunisierte Tiere: 75%
